# Experimental data: patent publication US8524702B2, “Substituted benzoazepines as toll-like receptor modulators” (VentiRx Pharmaceuticals, Inc., priority 2009, dated 2013)
# What was measured:
# Type in all cases: cell-based
# [1] = biological target: T1, TLR8 (Homo sapiens, UniProt Q9NR97); experiment: PBMC assay for TLR8 (TNFα in supernatants by ELISA); set-up: Peripheral blood mononuclear cells (PBMCs) from human blood were isolated; endogenous in cells; host or cells: human PBMCs; conditions: human PBMCs incubated with compound overnight, MC50 = concentration at which 50% of the maximum induction is seen
# T1 sequence (Q9NR97 27-1041): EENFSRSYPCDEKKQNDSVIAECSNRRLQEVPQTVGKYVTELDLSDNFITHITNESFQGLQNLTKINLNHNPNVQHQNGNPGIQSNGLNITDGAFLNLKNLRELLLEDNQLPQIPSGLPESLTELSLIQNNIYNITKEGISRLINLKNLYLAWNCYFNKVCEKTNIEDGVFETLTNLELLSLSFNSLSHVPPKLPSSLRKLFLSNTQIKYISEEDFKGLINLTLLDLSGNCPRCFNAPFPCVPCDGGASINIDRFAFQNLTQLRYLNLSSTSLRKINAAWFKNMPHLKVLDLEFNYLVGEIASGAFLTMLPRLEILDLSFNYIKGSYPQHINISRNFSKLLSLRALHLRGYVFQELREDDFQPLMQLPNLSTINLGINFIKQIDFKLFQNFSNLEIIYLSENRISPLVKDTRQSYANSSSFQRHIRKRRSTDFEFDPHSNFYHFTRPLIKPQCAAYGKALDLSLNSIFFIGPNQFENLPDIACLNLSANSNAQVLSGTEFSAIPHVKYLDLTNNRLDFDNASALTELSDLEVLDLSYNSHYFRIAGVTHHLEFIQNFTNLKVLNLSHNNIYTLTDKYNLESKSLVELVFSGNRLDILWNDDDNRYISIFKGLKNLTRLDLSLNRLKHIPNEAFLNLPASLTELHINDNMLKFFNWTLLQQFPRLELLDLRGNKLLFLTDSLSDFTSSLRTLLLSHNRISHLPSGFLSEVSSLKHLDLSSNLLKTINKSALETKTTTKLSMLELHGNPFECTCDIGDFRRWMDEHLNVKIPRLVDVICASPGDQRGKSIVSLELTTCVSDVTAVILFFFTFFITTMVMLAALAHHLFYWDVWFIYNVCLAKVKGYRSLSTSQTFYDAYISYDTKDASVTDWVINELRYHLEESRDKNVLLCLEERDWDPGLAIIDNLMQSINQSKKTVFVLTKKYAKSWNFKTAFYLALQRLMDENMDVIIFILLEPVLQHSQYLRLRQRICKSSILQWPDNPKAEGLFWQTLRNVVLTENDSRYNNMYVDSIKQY
# Method: (§1) Peripheral blood mononuclear cells (PBMCs) from human blood were isolated using BD Vacutainer Cell Preparation Tubes with sodium citrate. Cells were incubated with compound overnight. TLR8 activity was assayed by measuring the amount of TNFα in supernatants by ELISA. TLR7 activity was assayed by measuring the amount of IFNα in supernatants by ELISA (R&D Systems). […] The results of this assay are shown below in Tables 2 and 3.
# (§2) MC50 numbers are represented as factors of ten, for example, + indicates an MC50 value of ×10^4, or a value in the tens of thousands of nanomolar (nM range); ++ indicates an MC50 value of ×10^3, or a value in the thousands; +++ indicates an MC50 value of ×10^2, or a value in the hundreds; and ++++ indicates an MC50 value of ×10^1 or 10°, or a value in the tens or ones.
# [2] = biological target: T2, TLR7 (Homo sapiens, UniProt Q9NYK1); experiment: PBMC assay for TLR7 (IFNα in supernatants by ELISA); set-up: Peripheral blood mononuclear cells (PBMCs) from human blood were isolated; endogenous in cells; host or cells: human PBMCs; conditions: human PBMCs incubated with compound overnight, MC50 = concentration at which 50% of the maximum induction is seen
# T2 sequence (Q9NYK1 27-1049): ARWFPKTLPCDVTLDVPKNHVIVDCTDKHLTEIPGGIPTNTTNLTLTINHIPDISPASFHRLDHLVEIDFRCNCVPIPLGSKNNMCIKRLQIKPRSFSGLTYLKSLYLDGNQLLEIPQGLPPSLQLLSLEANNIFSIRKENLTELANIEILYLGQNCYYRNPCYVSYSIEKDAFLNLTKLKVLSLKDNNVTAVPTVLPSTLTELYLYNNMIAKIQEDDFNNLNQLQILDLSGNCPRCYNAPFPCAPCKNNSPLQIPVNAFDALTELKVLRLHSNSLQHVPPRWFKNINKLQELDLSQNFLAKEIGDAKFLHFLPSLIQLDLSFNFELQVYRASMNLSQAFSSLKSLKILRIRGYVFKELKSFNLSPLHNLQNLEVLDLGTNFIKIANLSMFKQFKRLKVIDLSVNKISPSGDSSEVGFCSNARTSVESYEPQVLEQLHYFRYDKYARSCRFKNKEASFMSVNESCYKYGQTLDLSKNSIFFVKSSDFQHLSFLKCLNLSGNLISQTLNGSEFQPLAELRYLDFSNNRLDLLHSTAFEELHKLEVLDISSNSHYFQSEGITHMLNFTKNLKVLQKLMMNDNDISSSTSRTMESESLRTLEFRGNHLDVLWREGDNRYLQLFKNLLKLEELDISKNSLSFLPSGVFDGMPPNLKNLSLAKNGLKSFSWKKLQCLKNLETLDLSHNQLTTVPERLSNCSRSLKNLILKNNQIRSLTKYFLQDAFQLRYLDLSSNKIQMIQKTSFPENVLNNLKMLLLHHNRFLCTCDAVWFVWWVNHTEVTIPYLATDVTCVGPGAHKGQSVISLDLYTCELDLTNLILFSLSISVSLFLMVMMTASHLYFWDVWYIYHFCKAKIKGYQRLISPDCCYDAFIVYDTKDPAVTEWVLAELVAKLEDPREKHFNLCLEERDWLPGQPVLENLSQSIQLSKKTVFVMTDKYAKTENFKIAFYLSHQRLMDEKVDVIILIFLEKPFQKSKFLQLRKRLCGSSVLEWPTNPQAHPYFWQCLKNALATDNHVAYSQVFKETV
# Method: as §1, §2
# [3] = biological target: T1, TLR8; experiment: TLR8 activity, MC50 values (procedure only by reference to Gorden et al. and Zhu et al.); conditions: assay format not given
# From the text: (§3) Activity of the compounds can be assessed according to procedures described in, e.g., Gorden et al., Journal of Immunology 177, pp. 8164-8170 (2006) and Zhu et al., Molecular Immunology, vol. 45 (11), pp. 3238-3242 (2008).
# MC50 values for TLR8 activity are, for example, as shown below: […]
# [4] = biological target: T2, TLR7; experiment: TLR7 activity, MC50 values (procedure only by reference to Gorden et al. and Zhu et al.); conditions: assay format not given
# From the text: as §3
# MC50 values for TLR7 activity are, for example, as shown below: […]
SMILES,EC50 [1] [nM],EC50 [2] [nM],EC50 [3] [nM],EC50 [4] [nM]
"CCCN(CCC)C(=O)C1=Cc2ccc(-c3ccncc3)cc2N=C(N)C1 [Compound 134, (1E,4E)-2-amino-N,N-dipropyl-8-(pyridin-4-yl)-3H-benzo[b]azepine-4-carboxamide]",100 to 1000,1000 to 10000,,
"CCCN(CCC)C(=O)C1=Cc2ccc(-c3ccc(O)cc3)cc2N=C(N)C1 [Compound 195, (1E,4E)-2-amino-8-(4-hydroxyphenyl)-N,N-dipropyl-3H-benzo[b]azepine-4-carboxamide]",100 to 1000,100 to 1000,,
"CCOC(=O)C1=Cc2ccc(-c3ccc(C(=O)N(C)C)cc3)cc2N=C(N)C1 [Compound 154, (1E,4E)-ethyl 2-amino-8-(4-(dimethylcarbamoyl)phenyl)-3H-benzo[b]azepine-4-carboxylate]",100 to 1000,,116,
"CCCN(CCC)C(=O)C1=Cc2ccc(-c3ccccc3C(=O)OCC)cc2N=C(N)C1 [Compound 203, Ethyl 2-((1E,4E)-2-amino-4-(dipropylcarbamoyl)-3H-benzo[b]azepin-8-yl)benzoate]",100 to 1000,1000 to 10000,,
"CCCN(CCC)C(=O)C1=Cc2ccc(-c3ccc(C(=O)OCOCC)cc3)cc2N=C(N)C1 [Compound 207, Ethoxymethyl 4-((1E,4E)-2-amino-4-(dipropylcarbamoyl)-3H-benzo[b]azepin-8-yl)benzoate]",1000 to 10000,1000 to 10000,,
"CCCN(CCCO)C(=O)C1=Cc2ccc(-c3ccc(C(=O)OCC)c(F)c3)cc2N=C(N)C1 [Compound 211, Ethyl 4-((1E,4E)-2-amino-4-((3-hydroxypropyl)(propyl)carbamoyl)-3H-benzo[b]azepin-8-yl)-2-fluorobenzoate]",100 to 1000,1000 to 10000,,
"CCCN(CCOC)C(=O)C1=Cc2ccc(-c3ccc(C(=O)N4CCCC4)cc3)cc2N=C(N)C1 [Compound 119, (1E,4E)-2-amino-N-(2-methoxyethyl)-N-propyl-8-(4-(pyrrolidine-1-carbonyl)phenyl)-3H-benzo[b]azepine-4-carboxamide]",100 to 1000,1000 to 10000,,
"CCOC(=O)C1=Cc2ccc(-c3cccc(C(=O)N(C)C)c3)cc2N=C(N)C1 [Compound 147, (1E,4E)-ethyl 2-amino-8-(3-(dimethylcarbamoyl)phenyl)-3H-benzo[b]azepine-4-carboxylate]",100 to 1000,1000 to 10000,,

# Continued, values first:
EC50 [1] [nM],EC50 [2] [nM],EC50 [3] [nM],EC50 [4] [nM],SMILES
1 to 100,1000 to 10000,4,,"CCCN(CCC)C(=O)C1=Cc2ccc(-c3ccc(C(=O)N4CC[C@@H](O)C4)cc3)cc2N=C(N)C1 [Compound 127, (1E,4E)-2-amino-8-(4-((R)-3-hydroxypyrrolidine-1-carbonyl)phenyl)-N,N-dipropyl-3H-benzo[b]azepine-4-carboxamide]"
100 to 1000,1000 to 10000,104,,"CCCN(CCC)C(=O)C1=Cc2ccc(-c3ccc(C(=O)N(C)C)cc3)cc2N=C(N)C1 [Compound 124, (1E,4E)-2-amino-8-(4-(dimethylcarbamoyl)phenyl)-N,N-dipropyl-3H-benzo[b]azepine-4-carboxamide]"
100 to 1000,100 to 1000,,767,"CCCN(CC(N)=O)C(=O)C1=Cc2ccc(-c3ccc(C(=O)N4CCCC4)cc3)cc2N=C(N)C1 [Compound 178, (1E,4E)-2-amino-N-(2-amino-2-oxoethyl)-N-propyl-8-(4-(pyrrolidine-1-carbonyl)phenyl)-3H-benzo[b]azepine-4-carboxamide]"
1 to 100,100 to 1000,,744,"CCCN(CCC)C(=O)C1=Cc2ccc(-c3cncnc3)cc2N=C(N)C1 [Compound 135, (1E,4E)-2-amino-N,N-dipropyl-8-(pyrimidin-5-yl)-3H-benzo[b]azepine-4-carboxamide]"
1 to 100,1000 to 10000,10,,"CCCN(C[C@@H](C)O)C(=O)C1=Cc2ccc(-c3ccc(C(=O)N4CCCC4)cc3)cc2N=C(N)C1 (single isomer, unassigned) [Compound 106]"
100 to 1000,1000 to 10000,,,"CCCN(CCC)C(=O)C1=Cc2ccc(-c3ccc(C(=O)N4CCCCC4)cc3)cc2N=C(N)C1 [Compound 126, (1E,4E)-2-amino-8-(4-(piperidine-1-carbonyl)phenyl)-N,N-dipropyl-3H-benzo[b]azepine-4-carboxamide]"
100 to 1000,10000 to 100000,,,"CCCN(CCCO)C(=O)C1=Cc2ccc(-c3ccc(/C=C/C(=O)OCC)cc3)cc2N=C(N)C1 [Compound 220, (E)-Ethyl 3-(4-((1E,4E)-2-amino-4-((3-hydroxypropyl)(propyl)carbamoyl)-3H-benzo[b]azepin-8-yl)phenyl)acrylate]"
1 to 100,,45,,"CCOC(=O)C1=Cc2ccc(-c3ccncc3)cc2N=C(N)C1 [Compound 143, (1E,4E)-ethyl 2-amino-8-(pyridin-4-yl)-3H-benzo[b]azepine-4-carboxylate]"
100 to 1000,10000 to 100000,196,,"CCCN(CCCO)C(=O)C1=Cc2ccc(-c3ccc(C(=O)OCC)cc3)cc2N=C(N)C1 [Compound 190, Ethyl 4-((1E,4E)-2-amino-4-((3-hydroxypropyl)(propyl)carbamoyl)-3H-benzo[b]azepin-8-yl)benzoate]"
1 to 100,1000 to 10000,,,"CCOC(=O)C1=Cc2ccc(-c3cncnc3)cc2N=C(N)C1 [Compound 144, (1E,4E)-ethyl 2-amino-8-(pyrimidin-5-yl)-3H-benzo[b]azepine-4-carboxylate]"
1 to 100,1000 to 10000,,,"CCCN(CCCO)C(=O)C1=Cc2ccc(-c3ccc(C(=O)N4CC[C@H](O)C4)cc3)cc2N=C(N)C1 [Compound 182, (1E,4E)-2-amino-N-(3-hydroxypropyl)-8-(4-((S)-3-hydroxypyrrolidine-1-carbonyl)phenyl)-N-propyl-3H-benzo[b]azepine-4-carboxamide]"
